Data from PMC3625590, “NBM-T-L-BMX-OS01, Semisynthesized from Osthole, Is a Novel Inhibitor of Histone Deacetylase and Enhances Learning and Memory in Rats” (Evidence-based Complementary and Alternative Medicine : eCAM, 2013).

What was measured:
Assay type in all cases: in vivo, Sprague-Dawley rats
Sco-induced amnesia rats = assay: Water-maze learning, Sco-induced memory impairment; conditions: Sco 1.5 mg/kg/d; BMX or SAHA 5 mg/kg/d i.p.
Description: SAHA was supplied by NatureWise Biotech and Medicals Corporation (Taipei, Taiwan). […] (St. Louis, MO, USA). The BMX and SAHA stock (100 mg/mL) was dissolved in DMSO and diluted with saline to a final concentration of 0.5 mg/mL (in 0.5% DMSO/saline). […] SD rats were randomly divided into 3 groups. For the naïve animal experiments, the BMX-injected or SAHA-injected groups were injected with BMX (5 mg/kg/d) or SAHA (5 mg/kg/d) intraperitoneally 7 d prior to behavioral experiments and during the experimentation. The control group received the 0.5% DMSO/saline injection. The injection volume was 10 μL/g of body weight. The injections were performed once per day. For the amnesia experiment, the protocol was adopted from previous studies with modifications. […] The control group received the 0.5% DMSO/saline injection. The injection volume was 10 μL/g of body weight. […] The method was adopted from that of a previous study with modifications. A plastic circular pool 2.0 m in diameter and 0.6 m in height was filled with water (25 ± 2°C) to a depth of 20 cm. A circular platform (8 cm in diameter) was placed at a specific location from the edge of the pool and submerged 2-3 cm below the water surface. Water was made cloudy by adding toxic-free dye. Distinctive visual cues were set on the wall. For spatial learning, animals were subjected to 3 trials per day, with one trial early in the morning, one trial at noon, and another in the late afternoon. The training procedure lasted 4 days, and a total of 12 trials were given. This procedure was adopted because spaced training is a better paradigm to facilitate memory consolidation. For these trials, the rats were positioned at different starting points spaced equally around the perimeter of the pool in random order. They had 120 s to find the hidden platform. If a rat could not find the platform, it was guided to the platform and was allowed to remain there for 20 s. The time each animal took to reach the platform was recorded as the escape latency. A probe trial of 120 s was given on day 5 to test their memory retention. The rats were placed in the pool with the platform removed, and the time they spent in each quadrant (Quadrants 1, 2, 3, and 4) was recorded. Quadrant 4 is the target quadrant. For the trained and swimming control experiments, rats in the trained group were subjected to the regular water maze learning procedure. At the end of the experiment, the rats were subjected to visible platform learning. For visible platform learning, a flag was mounted on the platform, and the platform was raised 2.5 cm above the surface of the water. In addition, the dye had not been added, so that the animals could see the location of the platform from the water. […]

HDAC8 = HDAC8 activity assay (Fluor-de-Lys) in brain nuclear extracts after behavioural tests; conditions: 5 mg/kg/d i.p., compared with trained-control animals
Description: For the HDAC8 activity assay, the deacetylase activity of HDAC8 was measured using the commercially available Fluor-de-Lys-HDAC8 deacetylase substrate (Enzo, New York, NY, USA) according to the manufacturer instructions. […] The homogenate was centrifuged at 1000 ×g for 10 min to obtain the nuclei pellet. […] To determine the HDAC activity, 10 μg of nuclear extracts was incubated with a specific substrate (100 μM) for 30 min at 37°C, followed by the addition of a developer solution for 30 min at 37°C. […] Data were normalized to swimming control, footshock control, and nontrained-control animals.

[1] = test system: histone 4 lysine 12 acetylation (AcH4K12); assay: Western blot of histone 4 lysine 12 acetylation in brain tissue after behavioural tests; conditions: 5 mg/kg/d i.p.
Description: The hippocampus tissue and primary hippocampal cells were lysed and sonicated in an RIPA buffer (50 mM Tris-HCl (pH 7.4), 150 mM NaCl, 2 mM EDTA, 1% IGEPAL CA-630, 1 mM phenylmethylsulfonyl fluoride (PMSF), 20 μg/mL pepstatin A, 20 μg/mL leupeptin, 20 μg/mL aprotinin, 50 mM NaF, and 1 mM Na3VO4). The protocol was performed as described previously. The lysate was resolved by 8% SDS-PAGE. The proteins resolved by SDS-PAGE were transferred to the PVDF membrane (Millipore, Bedford, MA, USA) and western blotting was conducted with the following antibodies: rabbit anti-acetyl histone 4 lysine 12 and mouse anti-histone 4 (Cell signaling, Danvers, MA, USA). The secondary antibodies used include the HRP-conjugated goat-anti-rabbit IgG antibody and HRP-conjugated goat-anti-mouse IgG antibody (Millipore). The membrane was developed by reacting with a chemiluminescent HRP substrate (Millipore) and exposure to X-ray film. The protein bands were quantified using the NIH Image J Software.

[2] = after novel object recognition task

In the case of `O=C(CCCCCCC(=O)Nc1ccccc1)NO` [SAHA, suberoylanilide hydroxamic acid, reference compound], the “escape latency in finding the hidden platform” value (Sco-induced amnesia rats) is reported as “attenuates Sco-induced longer escape latency”, the “probe trial, time spent in target quadrant” value (Sco-induced amnesia rats) is reported as “spent more time in the target quadrant” and the “HDAC8 activity in amygdala” value (HDAC8; 7 days after footshock) is reported as “did not have increased HDAC8 activity”. For the same compound, the “HDAC8 activity in hippocampus” value (HDAC8; [2]) was “did not have further increased HDAC8 activity”, the “HDAC8 activity in hippocampus” value (HDAC8; after water-maze probe trial) was “did not increase HDAC8 activity” and the “H4K12 acetylation in amygdala” value ([1]; 7 days after footshock) was “showed the highest H4K12 acetylation”. For the same compound, the “H4K12 acetylation in hippocampus” value [1, 2] was “showed the highest H4K12 acetylation” and the “H4K12 acetylation in hippocampus” value ([1]; after water-maze experiment) was “showed the highest H4K12 acetylation”.
